Experimental data reported in US9981986B2, “Antimicrobial compounds” (OXFORD UNIVERSITY INNOVATION LIMITED, priority 2012, dated 2018).
Converted amounts (≈) assume the structure as drawn.

What was measured:
[1] = tested on: Staphylococcus aureus N.C.T.C. 6571; test: hole-plate method, inhibition zones, S. aureus; assay type: cell-based; conditions: inhibition zone diameter
Protocol: (§1) Various compounds illustrative of the compounds of the present invention were synthesised and tested for their bioactivity. Microbiological assays were performed by the hole-plate method with the test organism Staphylococcus aureus N.C.T.C. 6571 or E. coli X580. […] The diameters of the resultant inhibition zones were measured.

E. coli X580 = test: hole-plate method, inhibition zones, E. coli; assay type: cell-based; conditions: inhibition zone diameter
Protocol: as §1

[2] = tested on: mammalian_red blood cell membrane; test: In vitro mammalian red blood cell membrane lysis activity; assay type: cell-based; conditions: read-out: RBC IC50
Text: (§2) These properties can be determined according to techniques that are well known in the art.

[3] = tested on: S. pneumonia 9, (multi-drug resistant); test: MIC determination (bacteria), P9 / P9B; assay type: cell-based; conditions: for MIC P9: S. pneumonia 9, multi-drug resistant; for MIC P9B: S. pneumonia 9 in presence of 2.5% horse blood
Protocol: (§3) MIC Determination (Bacteria);
(§4) MICs were determined based on Clinical and Laboratory Standards Institute (CLSI) methodology (Methods for dilution antimicrobial susceptibility tests for bacteria that grow aerobically; Approved Standard—seventh edition. 2006, M7-A7, CLSI, Wayne Pa.) by a 2-fold broth dilution technique in Mueller Hinton (pH7.4 Biorad). For S. pneumoniae, the medium was supplemented with 2.5% laked horse blood. For H. influenzae, the medium was haemophilus test medium (H.T.M.). Overnight cultures were diluted to obtain the final inoculum of 10^5 cfu/well. Incubation was 37° C. overnight in ambient air. The MIC was defined as the lowest concentration which inhibited all visual growth and expressed in μg/ml. For each bacterial species, all of the molecules were tested in the same experiment in order to give a head-to-head comparison.

S. aureus membrane = test: In vitro activity in depolarization of S. aureus membrane; assay type: cell-based; conditions: read-out: DEP IC50
Text: as §2

S. pneumonia UPPS = target: T1, S. pneumonia UPPS (Streptococcus pneumoniae serotype 4, UniProt Q97SR4); test: In vitro activity against S. pneumonia UPPS; assay type: biochemical; conditions: read-out: UPP IC50
T1 sequence (Q97SR4 1-252): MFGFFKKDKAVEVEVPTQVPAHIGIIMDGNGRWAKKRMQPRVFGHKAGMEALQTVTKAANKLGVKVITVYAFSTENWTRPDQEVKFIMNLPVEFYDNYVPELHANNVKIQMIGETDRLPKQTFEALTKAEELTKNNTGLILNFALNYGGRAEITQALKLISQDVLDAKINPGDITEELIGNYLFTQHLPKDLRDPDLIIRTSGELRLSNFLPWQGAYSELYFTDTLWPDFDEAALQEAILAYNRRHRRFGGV
Text: as §2

Candida albicans = test: MIC determination (fungus), Candida albicans; assay type: cell-based
Protocol: MIC Determination (Fungus); MICs were determined for the antifungus by microdilution methods using RPMI 1640 medium buffered with morpholinopropanesulfonic acid (MOPS) and supplemented with L-glutamine as described by CLSI procedures (M27-A method) (Reference method for broth dilution antifungal susceptibility testing of yeasts; Approved standard—[…]. 2006, M27-A2, CLSI, Wayne Pa.).

[4] = tested on: H. influenzae 3, ATCC31517 MMSA; test: MIC determination (bacteria), H3; assay type: cell-based
Protocol: as §3, §4

[5] = tested on: E. faecium 1, VanA (vancomycin resistant); test: MIC determination (bacteria), E2; assay type: cell-based
Protocol: as §3, §4

S. aureus 4, Oxford = test: MIC determination (bacteria), S4; assay type: cell-based
Protocol: as §3, §4

[6] = assay type: physicochemical; conditions: pH 7.4
Text: as §2

[7] = tested on: H. influenzae 4, LS2 Efflux ko; test: MIC determination (bacteria), H4; assay type: cell-based
Protocol: as §3, §4

[8] = tested on: human peripheral blood cells; test: in vitro toxicities human peripheral blood cells; assay type: cell-based
Text: as §2

[9] = tested on: E. faecalis 1, ATCC29212 VanS (vancomycin susceptible); test: MIC determination (bacteria), E1; assay type: cell-based
Protocol: as §3, §4

plasma protein = assay type: in vitro ADME
Text: as §2

[10] = tested on: S. aureus 26, ATCC25923 (vancomycin susceptible); test: MIC determination (bacteria), S26; assay type: cell-based
Protocol: as §3, §4

[11] = tested on: S. pneumonia 1, ATCC49619 (erythromycin susceptible); test: MIC determination (bacteria), P1; assay type: cell-based
Protocol: as §3, §4

E. Coli RNAP = E. Coli RNAP (Escherichia coli, UniProt P0A8T7+P0A8V2); test: In vitro activity against E. Coli RNAP; assay type: biochemical; conditions: read-out: RNA IC50
Chain of E. Coli RNAP (P0A8V2 whole entry): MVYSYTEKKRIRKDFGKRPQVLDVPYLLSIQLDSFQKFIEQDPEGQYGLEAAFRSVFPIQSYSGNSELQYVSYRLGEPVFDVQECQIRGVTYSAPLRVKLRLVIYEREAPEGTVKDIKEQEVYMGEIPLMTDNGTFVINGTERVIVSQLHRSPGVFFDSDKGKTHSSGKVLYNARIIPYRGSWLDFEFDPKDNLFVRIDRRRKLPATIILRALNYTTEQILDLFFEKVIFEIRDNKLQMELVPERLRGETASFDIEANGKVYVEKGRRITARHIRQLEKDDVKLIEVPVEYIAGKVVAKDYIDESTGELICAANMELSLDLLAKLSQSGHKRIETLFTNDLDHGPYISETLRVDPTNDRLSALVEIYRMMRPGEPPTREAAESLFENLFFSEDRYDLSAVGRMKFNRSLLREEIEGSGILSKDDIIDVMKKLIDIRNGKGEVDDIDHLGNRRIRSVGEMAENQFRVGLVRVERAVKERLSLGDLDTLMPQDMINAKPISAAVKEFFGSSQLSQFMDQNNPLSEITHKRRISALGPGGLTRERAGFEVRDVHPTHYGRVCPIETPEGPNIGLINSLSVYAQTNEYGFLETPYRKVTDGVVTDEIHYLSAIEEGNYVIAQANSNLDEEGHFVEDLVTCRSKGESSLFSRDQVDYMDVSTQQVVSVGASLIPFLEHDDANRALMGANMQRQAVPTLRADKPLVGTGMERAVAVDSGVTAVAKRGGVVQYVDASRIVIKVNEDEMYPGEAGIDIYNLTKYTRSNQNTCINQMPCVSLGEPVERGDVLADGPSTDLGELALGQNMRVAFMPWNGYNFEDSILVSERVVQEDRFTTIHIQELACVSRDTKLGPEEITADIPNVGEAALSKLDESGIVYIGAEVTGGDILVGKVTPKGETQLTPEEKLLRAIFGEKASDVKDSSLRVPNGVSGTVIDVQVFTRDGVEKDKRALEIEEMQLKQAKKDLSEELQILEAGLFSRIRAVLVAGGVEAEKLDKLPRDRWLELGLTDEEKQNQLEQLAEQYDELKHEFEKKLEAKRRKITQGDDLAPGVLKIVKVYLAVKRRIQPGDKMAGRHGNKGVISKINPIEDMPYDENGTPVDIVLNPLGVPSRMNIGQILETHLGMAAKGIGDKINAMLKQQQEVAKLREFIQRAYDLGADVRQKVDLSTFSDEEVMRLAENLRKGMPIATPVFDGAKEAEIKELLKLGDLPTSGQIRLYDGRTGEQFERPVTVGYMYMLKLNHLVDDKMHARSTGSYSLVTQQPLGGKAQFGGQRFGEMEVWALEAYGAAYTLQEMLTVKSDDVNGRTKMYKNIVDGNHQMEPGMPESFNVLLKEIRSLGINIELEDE
Chain of E. Coli RNAP (P0A8T7 whole entry): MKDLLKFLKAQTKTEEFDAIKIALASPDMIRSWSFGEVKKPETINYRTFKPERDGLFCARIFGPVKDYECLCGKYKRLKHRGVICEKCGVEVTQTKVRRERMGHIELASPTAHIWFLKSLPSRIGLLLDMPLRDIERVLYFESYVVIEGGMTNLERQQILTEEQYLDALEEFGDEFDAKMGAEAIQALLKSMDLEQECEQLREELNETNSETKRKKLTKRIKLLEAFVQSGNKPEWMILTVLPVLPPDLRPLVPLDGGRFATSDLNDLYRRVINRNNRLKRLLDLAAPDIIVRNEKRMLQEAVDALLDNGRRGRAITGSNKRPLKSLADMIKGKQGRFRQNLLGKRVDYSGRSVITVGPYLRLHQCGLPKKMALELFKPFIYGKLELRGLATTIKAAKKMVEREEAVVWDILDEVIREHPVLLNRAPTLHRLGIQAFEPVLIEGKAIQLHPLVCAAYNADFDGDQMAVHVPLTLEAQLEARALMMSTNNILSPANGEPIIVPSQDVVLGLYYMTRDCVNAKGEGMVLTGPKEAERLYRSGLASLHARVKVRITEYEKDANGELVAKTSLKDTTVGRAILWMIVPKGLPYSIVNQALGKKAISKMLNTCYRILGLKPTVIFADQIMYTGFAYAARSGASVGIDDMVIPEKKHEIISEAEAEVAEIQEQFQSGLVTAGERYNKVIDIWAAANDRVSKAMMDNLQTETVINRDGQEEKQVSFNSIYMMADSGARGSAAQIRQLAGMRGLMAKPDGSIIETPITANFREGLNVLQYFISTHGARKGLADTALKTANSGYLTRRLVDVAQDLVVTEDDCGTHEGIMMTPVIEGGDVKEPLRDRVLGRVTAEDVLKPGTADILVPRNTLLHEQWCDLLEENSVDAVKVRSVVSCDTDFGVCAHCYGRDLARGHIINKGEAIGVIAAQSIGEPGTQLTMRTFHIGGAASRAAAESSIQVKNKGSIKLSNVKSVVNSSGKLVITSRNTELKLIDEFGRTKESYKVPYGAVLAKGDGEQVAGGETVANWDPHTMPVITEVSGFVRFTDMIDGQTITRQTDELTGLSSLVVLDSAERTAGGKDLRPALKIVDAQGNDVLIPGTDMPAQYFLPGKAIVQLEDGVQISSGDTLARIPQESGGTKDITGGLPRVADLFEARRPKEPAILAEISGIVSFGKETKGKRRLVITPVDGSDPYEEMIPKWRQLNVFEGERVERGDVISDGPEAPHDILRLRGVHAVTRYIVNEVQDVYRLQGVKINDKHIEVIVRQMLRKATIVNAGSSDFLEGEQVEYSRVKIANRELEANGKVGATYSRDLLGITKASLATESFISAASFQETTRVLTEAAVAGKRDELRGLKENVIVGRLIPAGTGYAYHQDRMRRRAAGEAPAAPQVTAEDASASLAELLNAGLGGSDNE
Chain of E. Coli RNAP (P0A7Z4 whole entry partner): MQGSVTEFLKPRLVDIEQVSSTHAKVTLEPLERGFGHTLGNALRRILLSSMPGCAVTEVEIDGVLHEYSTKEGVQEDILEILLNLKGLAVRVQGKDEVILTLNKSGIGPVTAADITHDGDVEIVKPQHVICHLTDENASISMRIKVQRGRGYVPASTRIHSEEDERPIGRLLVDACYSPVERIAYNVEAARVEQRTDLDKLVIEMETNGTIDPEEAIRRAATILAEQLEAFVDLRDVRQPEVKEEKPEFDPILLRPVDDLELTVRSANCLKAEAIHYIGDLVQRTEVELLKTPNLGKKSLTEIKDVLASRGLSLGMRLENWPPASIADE
Chain of E. Coli RNAP (P0A800 whole entry partner): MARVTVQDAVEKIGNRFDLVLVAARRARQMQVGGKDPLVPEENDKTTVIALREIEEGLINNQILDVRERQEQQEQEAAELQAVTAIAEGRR
Text: as §2

[12] = tested on: S. aureus 2, (MRSA in vivo); test: MIC determination (bacteria), S2; assay type: cell-based
Protocol: as §3, §4

[13] = tested on: S. aureus 1, ATCC13709 in vivo (methicillin sensitive); test: MIC determination (bacteria), S1; assay type: cell-based
Protocol: as §3, §4

[14] = tested on: human embryonic kidney 293 cells; test: in vitro toxicities against human embryonic kidney 293 cells; assay type: cell-based
Text: as §2

Compound: CCOC(=O)C1=C(O)C2CS[C@@H](c3ccc([N+](=O)[O-])cc3)N2C1=O (stereo partly shown)
- Bioactivity (mm) S. aureus (4 mg/ml) [1]: 16 mm

Compound: O=C(NC12CC3CC(CC(C3)C1)C2)C1=C(O)C2CS[C@@H](c3ccc(F)cc3Cl)N2C1=O (stereo partly shown)
- Bioactivity (mm) E. coli 0.01 mg/ml (E. coli X580): 14 mm
- Bioactivity (mm) S. aureus 0.001 mg/ml [1]: 21 mm
- Bioactivity (mm) S. aureus 0.01 mg/ml [1]: 25 mm

Compound: O=C(NC12CC3CC(CC(C3)C1)C2)C1=C(O)C2CS[C@@H](c3ccccc3)N2C1=O (stereo partly shown)
- Bioactivity (mm) E. coli 0.001 mg/ml (E. coli X580; 0.001 mg/ml): 15 mm
- Bioactivity (mm) E. coli 0.01 mg/ml (E. coli X580): 15 mm
- Bioactivity (mm) S. aureus 0.01 mg/ml [1]: 22 mm

Compound: O=C(NC12CC3CC(CC(C3)C1)C2)C1=C(O)C2CS[C@@H](c3ccc(F)cc3)N2C1=O (stereo partly shown)
- Bioactivity (mm) E. coli 0.01 mg/ml (E. coli X580): 14 mm
- Bioactivity (mm) S. aureus 0.001 mg/ml [1]: 21 mm
- Bioactivity (mm) S. aureus 0.01 mg/ml [1]: 27 mm

Compound: Cc1cc(Cl)ccc1NC(=O)C1=C(O)C2CS[C@@H](c3ccc(Br)cc3)N2C1=O (stereo partly shown)
- Bioactivity (mm) S. aureus 0.25 mg/ml [1]: 25 mm
- Bioactivity (mm) S. aureus 0.5 mg/ml [1]: 26 mm

Compound: CCOC(=O)C1=C(O)C2CS[C@@H](c3ccc(F)cc3Cl)N2C1=O (stereo partly shown)
- Bioactivity (mm) S. aureus (4 mg/ml) [1]: 18 mm

Compound: CCOC(=O)C12C(=O)C(=C(O)CC34CC5CC(C)(CC(C)(C5)C3)C4)C(=O)N1C(C(C)(C)C)OC2C (racemic) [Compound 6C]
- IC50 [2]: > 100 µM
- MIC P9 [3]: 0.5 µg/mL (≈ 1.03 µM)
- MIC P9B [3]: 1 µg/mL
- IC50 (S. aureus membrane): > 100 µM
- IC50 (S. pneumonia UPPS): 3.2 µM
- CAN MIC (Candida albicans): >32 µg/mL
- MIC H3 [4]: 64 µg/mL (≈ 131 µM)
- MIC E2 [5]: 1 µg/mL (≈ 2.05 µM)
- MIC S4 (S. aureus 4, Oxford): 2 µg/mL (≈ 4.1 µM)
- SOL [6]: >300 µM
- MIC H4 [7]: 0.25 µg/mL (≈ 0.513 µM)
- PMB LD50 [8]: >90.9 µM
- MIC E1 [9]: 2 µg/mL (≈ 4.1 µM)
- PPB (plasma protein): 99.8%
- MIC S26 [10]: 2 µg/mL (≈ 4.1 µM)
- MIC P1 [11]: 0.5 µg/mL (≈ 1.03 µM)
- IC50 (E. Coli RNAP): 4 µM
- MIC S2 [12]: 1 µg/mL (≈ 2.05 µM)
- MIC S1 [13]: 2 µg/mL (≈ 4.1 µM)
- HEK LD50 [14]: 90.9 µM

Compound: CC(C)(C)[Si](C)(C)OCc1ccc([C@@H]2SCC3C(O)=C(C(=O)NC45CC6CC(CC(C6)C4)C5)C(=O)N32)cc1 (stereo partly shown)
- Bioactivity (mm) S. aureus 0.25 mg/ml [1]: 12 mm
- Bioactivity (mm) S. aureus 0.5 mg/ml [1]: 13 mm

Compound: CCOC(=O)C1=C(O)C2CSC(c3cccc(Br)c3)N2C1=O (stereo not shown)
- Bioactivity (mm) S. aureus (4 mg/ml) ([1]; Cm): 2.0 Cm

Compound: CC(C)(C)C1OCC2(C)C(O)=C(C(=O)NCC3CCCCC3)C(=O)N12 (racemic) [(±)-2E]
- IC50 [2]: > 100 µM
- MIC P9 [3]: 1 µg/mL (≈ 2.85 µM)
- MIC P9B [3]: 1 µg/mL
- IC50 (S. aureus membrane): 84.3 µM
- IC50 (S. pneumonia UPPS): 0.68 µM
- CAN MIC (Candida albicans): >32 µg/mL
- MIC H3 [4]: 4 µg/mL (≈ 11.4 µM)
- MIC E2 [5]: 1 µg/mL (≈ 2.85 µM)
- MIC S4 (S. aureus 4, Oxford): 4 µg/mL (≈ 11.4 µM)
- SOL [6]: >300 µM
- MIC H4 [7]: 0.12 µg/mL (≈ 0.342 µM)
- PMB LD50 [8]: 90.9 µM
- MIC E1 [9]: 2 µg/mL (≈ 5.71 µM)
- PPB (plasma protein): 96.6%
- MIC S26 [10]: 4 µg/mL (≈ 11.4 µM)
- MIC P1 [11]: 2 µg/mL (≈ 5.71 µM)
- IC50 (E. Coli RNAP): 31 µM
- MIC S2 [12]: 2 µg/mL (≈ 5.71 µM)
- MIC S1 [13]: 4 µg/mL (≈ 11.4 µM)
- HEK LD50 [14]: 90.9 µM

Compound: CCOC(=O)C1=C(O)C2CSC(c3ccc(Br)cc3)N2C1=O (stereo not shown)
- Bioactivity (mm) S. aureus (4 mg/ml) ([1]; Cm): 1.7 Cm

Compound: O=C(NC12CC3CC(CC(C3)C1)C2)C1=C(O)C2CS[C@@H](c3ccc([N+](=O)[O-])cc3)N2C1=O (stereo partly shown)
- Bioactivity (mm) E. coli 0.01 mg/ml (E. coli X580): 14 mm
- Bioactivity (mm) S. aureus 0.001 mg/ml [1]: 19 mm
- Bioactivity (mm) S. aureus 0.01 mg/ml [1]: 25 mm

Compound: CCOC(=O)C12C(=O)C(=C(O)CC(C)(C)CC(=O)OCCC34CC5CC(CC(C5)C3)C4)C(=O)N1C(C(C)(C)C)OC2C (racemic) [Compound 6G]
- IC50 [2]: > 100 µM
- MIC P9 [3]: 1 µg/mL (≈ 1.7 µM)
- MIC P9B [3]: 4 µg/mL
- IC50 (S. aureus membrane): > 100 µM
- IC50 (S. pneumonia UPPS): 1.9 µM
- CAN MIC (Candida albicans): >32 µg/mL
- MIC H3 [4]: >64 µg/mL
- MIC E2 [5]: 0.5 µg/mL (≈ 0.851 µM)
- MIC S4 (S. aureus 4, Oxford): 1 µg/mL (≈ 1.7 µM)
- SOL [6]: >300 µM
- MIC H4 [7]: 2 µg/mL (≈ 3.4 µM)
- PMB LD50 [8]: >90.9 µM
- MIC E1 [9]: 1 µg/mL (≈ 1.7 µM)
- MIC S26 [10]: 1 µg/mL (≈ 1.7 µM)
- MIC P1 [11]: 2 µg/mL (≈ 3.4 µM)
- IC50 (E. Coli RNAP): 2.4 µM
- MIC S2 [12]: 0.5 µg/mL (≈ 0.851 µM)
- MIC S1 [13]: 0.5 µg/mL (≈ 0.851 µM)
- HEK LD50 [14]: 10.1 µM

Compound: CCOC(=O)C1=C(O)C2CSC(c3ccc(CO[Si](C)(C)C(C)(C)C)cc3)N2C1=O (stereo not shown)
- Bioactivity (mm) S. aureus (4 mg/ml) ([1]; Cm): 2.3 Cm

Compound: CC(C)(C)C1OCC2(C)C(=O)C(C(=O)NC34CC5CC(CC(C5)C3)C4)C(=O)N12 (racemic) [(±)-2A]
- IC50 [2]: > 100 µM
- MIC P9 [3]: 1 µg/mL (≈ 2.57 µM)
- MIC P9B [3]: 1 µg/mL
- IC50 (S. aureus membrane): 10.8 µM
- IC50 (S. pneumonia UPPS): 0.38 µM
- CAN MIC (Candida albicans): >32 µg/mL
- MIC H3 [4]: 2 µg/mL (≈ 5.15 µM)
- MIC E2 [5]: 1 µg/mL (≈ 2.57 µM)
- MIC S4 (S. aureus 4, Oxford): 1 µg/mL (≈ 2.57 µM)
- SOL [6]: 75 to 150 µM
- MIC H4 [7]: 1 µg/mL (≈ 2.57 µM)
- PMB LD50 [8]: 30.3 µM
- MIC E1 [9]: 1 µg/mL (≈ 2.57 µM)
- MIC S26 [10]: 2 µg/mL (≈ 5.15 µM)
- MIC P1 [11]: 1 µg/mL (≈ 2.57 µM)
- IC50 (E. Coli RNAP): 17 µM
- MIC S2 [12]: 1 µg/mL (≈ 2.57 µM)
- MIC S1 [13]: 1 µg/mL (≈ 2.57 µM)
- HEK LD50 [14]: 30.3 µM

Compound: CCOC(=O)CC(=O)N1C(c2ccc(F)cc2Cl)SC[C@@H]1C(=O)OC (stereo partly shown)
- Bioactivity (mm) E. coli (4 mg/ml) (E. coli X580; 4 mg/ml): 16 mm
